This assay addresses T1, exogenous Geminin-Cdtl protein complex (Homo sapiens, UniProt O75496+Q9H211).
T1 construct: expressed in transfected cells; host or cells: MCF7
T1 sequence (Q9H211 1-546): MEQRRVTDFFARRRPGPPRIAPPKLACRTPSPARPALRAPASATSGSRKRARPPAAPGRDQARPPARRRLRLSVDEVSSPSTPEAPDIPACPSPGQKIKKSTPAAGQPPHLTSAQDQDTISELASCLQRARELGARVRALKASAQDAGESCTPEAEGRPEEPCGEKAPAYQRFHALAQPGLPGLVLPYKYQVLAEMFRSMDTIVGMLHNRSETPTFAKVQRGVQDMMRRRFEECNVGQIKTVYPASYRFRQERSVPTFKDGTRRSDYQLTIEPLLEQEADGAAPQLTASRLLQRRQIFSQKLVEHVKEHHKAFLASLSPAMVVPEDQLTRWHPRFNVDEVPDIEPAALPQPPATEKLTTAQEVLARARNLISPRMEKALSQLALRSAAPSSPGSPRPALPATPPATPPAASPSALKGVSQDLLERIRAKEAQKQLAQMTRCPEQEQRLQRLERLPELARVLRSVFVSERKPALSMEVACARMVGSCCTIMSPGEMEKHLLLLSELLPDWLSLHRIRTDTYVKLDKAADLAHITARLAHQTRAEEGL
T1 sequence (O75496 1-209): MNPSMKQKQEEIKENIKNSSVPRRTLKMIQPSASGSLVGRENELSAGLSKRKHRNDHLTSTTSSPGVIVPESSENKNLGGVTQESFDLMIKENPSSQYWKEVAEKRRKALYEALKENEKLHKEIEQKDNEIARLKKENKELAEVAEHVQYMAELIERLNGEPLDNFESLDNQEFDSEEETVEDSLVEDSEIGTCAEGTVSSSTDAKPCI
Nature of the assay: FRET acceptor photobleaching cellular assay in co-transfected MCF7 cells (Cdt1-GFP & Geminin-dhcRed). In kind it is cell-based. The conditions noted are these: 100µM, 24-hour incubation, MCF7 cells co-transfected with Cdt1-GFP & Geminin-dhcRed (Fig. 3). On the procedure:
A cellular assay was developed and applied using epithelial cells of breast adenocarcinoma (MCF7), for the purpose of the ex vivo study of the ability of the synthetic chemical compound AF-615/30368009 to inhibit formation and/or disrupt the exogenous Geminin-Cdtl protein complex.
The appropriate number of cells was seeded onto glass coverslips and cells were allowed in culture in order to adhere. Then they were transiently co-transfected with plasmid expression vectors pcDNA3.1-EGFP and pdiHcRed-N1 containing the DNA regions encoding for the proteins Cdtl-GFP and Geminin-dhcRed respectively. Three to five hours after co-transfection, the medium was removed and replaced with fresh medium which contained the synthetic chemical compound AF-615/30368009 at a concentration of 100µM. […]
MCF7 cancer cells fixed as described above were used to perform FRET acceptor photobleaching. In order to quantify the efficiency (E) of the FRET phenomenon, the following equation was used: (4) E = (Dpost - Dpre)/Dpost, wherein Dpre and Dpost is the mean value of fluorescence intensity of the donor before and after photobleaching of the acceptor, respectively.
For the purposes of this invention the inhibitory effect of the synthetic compound AF-615/30368009 on the exogenous Geminin-Cdtl protein complex was calculated as the percent (%) change in efficiency (E) of the FRET phenomenon. […]

Consider `O=C(NNC(=S)N1CCOCC1)c1cnccn1` [AF-615/30368009, N'-(morpholine-4-carbothioyl)pyrazine-2-carbohydrazide], for which the “efficiency (E) of the FRET phenomenon” value is “decrease in (E), although not statistically significant”.

The record behind these values is patent EP3463364B1, “PYRAZINE DERIVATIVES FOR USE IN THE TREATMENT OF DISEASES ASSOCIATED WITH CELL CYCLE DYSREGULATION” (University of Patras, priority 2016, dated 2017).
